Experimental data reported in patent publication US8642297B2, “Production of L-ribose and other rare sugars” (ZuChem, Inc., priority 2005, dated 2014).

Key:
[1] = target: T1, Recombinant MDH (Apium graveolens, UniProt Q38707, C47S/T120I); assay: Relative reaction rates of substrates with recombinantly expressed MDH (NADH formation measured spectrophotometrically); format: biochemical; conditions: relative to D-mannitol = 100%; MDH expressed in E. coli
T1 construct: made in house; host or cells: E. coli BL21 (pTTQ18 plasmid, tac promoter)
T1 sequence (Q38707 whole entry C47S/T120I): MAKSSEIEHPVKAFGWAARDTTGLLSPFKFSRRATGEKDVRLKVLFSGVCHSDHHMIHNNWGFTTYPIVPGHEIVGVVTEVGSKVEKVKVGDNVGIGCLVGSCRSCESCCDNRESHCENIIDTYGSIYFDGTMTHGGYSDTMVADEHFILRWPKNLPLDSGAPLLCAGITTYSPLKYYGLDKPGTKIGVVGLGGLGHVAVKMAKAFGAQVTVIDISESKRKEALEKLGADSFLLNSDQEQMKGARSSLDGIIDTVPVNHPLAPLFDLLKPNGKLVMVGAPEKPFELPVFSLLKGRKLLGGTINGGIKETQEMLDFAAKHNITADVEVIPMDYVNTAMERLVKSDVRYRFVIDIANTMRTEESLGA
Method: (§1) Many different variables were studied to maximize the expression and activity of MDH. MDH activity was monitored with the conversion of D-mannitol to D-mannose in the presence of NAD. The conversion was monitored spectrophotometrically by measuring the increasing concentration of NADH, the cofactor product of the oxidation of mannitol to mannose. For a given experiment, lysate protein concentrations were normalized.
Substrate specificity of the recombinant MDH was also tested and compared with the published data on the natively expressed MDH. Recombinant expression of MDH in E. coli could cause subtle modifications to the tertiary structure of MDH and modify the substrate specificity. Several known substrates of the MDH were tested.[16]
The reaction rate of L-fucitol for recombinant MDH was tested. […] The fucitol was not originally characterized in the previous literature on MDH.[38]

[2] = target: T2, Native MDH (Apium graveolens, UniProt Q38707); conditions: cited from earlier work; for Relative reaction rate, Native MDH: relative to D-mannitol = 100%, natively expressed MDH
T2 construct: compared with the published data on the natively expressed MDH; host or cells: celery (Apium graveolens)
T2 sequence (Q38707 1-365): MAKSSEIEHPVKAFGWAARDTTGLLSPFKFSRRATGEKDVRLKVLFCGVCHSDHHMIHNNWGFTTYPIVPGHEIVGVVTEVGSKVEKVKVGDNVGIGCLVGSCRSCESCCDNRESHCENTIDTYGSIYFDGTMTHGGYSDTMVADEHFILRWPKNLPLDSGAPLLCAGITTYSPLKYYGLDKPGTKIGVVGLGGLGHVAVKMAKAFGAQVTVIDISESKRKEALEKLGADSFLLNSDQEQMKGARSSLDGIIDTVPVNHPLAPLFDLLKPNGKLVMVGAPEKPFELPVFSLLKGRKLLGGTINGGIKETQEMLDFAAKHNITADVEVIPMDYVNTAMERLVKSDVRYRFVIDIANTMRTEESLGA

[3] = target: T3, Apium gravelons mannitol-1-dehydrogenase (MDH) (Apium graveolens, UniProt Q38707, C47S/T120I); assay: MDH activity in lysate with added divalent metal salts, D-mannitol and NAD at pH 9.0; format: biochemical
T3 construct: made in house; host or cells: E. coli BL21 (pTTQ18 plasmid, tac promoter)
T3 sequence (Q38707 whole entry C47S/T120I): as the sequence (Q38707 whole entry C47S/T120I) above
Method: While not explicitly described in the literature, Apium gravelons mannitol-1-dehydrogenase (MDH) requires divalent metal ions, particularly Zn^2+ ions, for activity. The presence of ZnSO4 increases MDH activity. Cells expressing MDH were grown in rich media were harvested and lysed with BUGBUSTER® protein extraction reagent, Novagen, Madison, Wis. MDH activity was then tested with increasing concentrations of ZnSO4 in the presence of D-mannitol and NAD cofactor at pH 9.0. See, FIG. 1.

[4] = format: biochemical, Apium graveolens
Method: as §1
The pH profile for MDH for the oxidation reactions was also tested. […] This range could be beneficial for in vitro bioconversions with enzymatic NAD cofactor recycling methods. Increasing the activity of MDH at neutral pH could improve in vivo fermentation activity as the interior of the E. coli cell has a pH lower than 9.0.[21]
The recombinant MDH was tested for activity at various temperatures. Lysates containing expressed MDH were incubated with D-mannitol and NAD at pH 9.0. Activity was measured by measuring the increased NADH concentration spectrophotometrically at A340nm. […] See, FIG. 12.
The thermostability of recombinant MDH was also tested. Lysates containing MDH were incubated at various temperatures. Aliquots of MDH were removed at various times to measure MDH activity using the assay described above. See, FIG. 13.

OC[C@@H](O)C(O)[C@H](O)CO [D-Arabitol]
Relative reaction rate, Recombinant MDH [1]: 33%
Relative reaction rate, Native MDH [2]: 37%

OC[C@@H](O)[C@@H](O)[C@H](O)[C@H](O)CO [D-Mannitol]
Relative reaction rate, Recombinant MDH [1]: 100%
Relative reaction rate, Native MDH [2]: 100%

OC[C@@H](O)[C@@H](O)[C@H](O)[C@@H](O)CO [D-Sorbitol]
Relative reaction rate, Recombinant MDH [1]: 5%
Relative reaction rate, Native MDH [2]: 22%

OC[C@@H](O)[C@@H](O)CO [Erythritol]
Relative reaction rate, Recombinant MDH [1]: 4%
Relative reaction rate, Native MDH [2]: 16%

C[C@H](O)[C@@H](O)[C@@H](O)[C@H](O)CO [L-fucitol]
Relative reaction rate, Recombinant MDH [1]: 10.5%

O=S(=O)([O-])[O-].[Ni+2] [NiSO4]
Inhibition of MDH activity ([3]; 0.1 mM NiSO4 compared to MDH without NiSO4 added): approximately 50%

OC[C@@H](O)[C@@H](O)[C@@H](O)CO [Ribitol]
Relative reaction rate, Recombinant MDH [1]: 50%
Relative reaction rate, Native MDH [2]: 36%

OC[C@@H](O)[C@H](O)[C@@H](O)CO [Xylitol]
Relative reaction rate, Recombinant MDH [1]: 1%
Relative reaction rate, Native MDH [2]: 0%
Conversion of xylitol to L-xylose by wild-type MDH ([2]; wild-type MDH): does not convert

O=S(=O)([O-])[O-].[Zn+2] [Zn^2+, ZnSO4]
Increase of MDH activity ([3]; 1 μM Zn^2+ ions compared to no added zinc): 50%
Effect on MDH activity at concentrations above 1 μM ([3]; concentrations above 1 μM): inhibition

MDH: NAD-dependent mannitol-1-dehydrogenase from Apium graveolens, recombinantly expressed in E. coli
Thermostability (loss of activity on incubation) [4]: Most MDH activity was lost
Residual activity at pH 7.0 ([4]; pH 7.0, relative to maximum at pH 9.0): 10%
